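96-well plates; 48 h exposure; 5 concentrations. Endpoints by linear interpolation between flanking doses. Not reached: highest tested concentration assigned. At the GI50, growth is halved.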 Calls of active or inactive are those of the source. Rule as the data show it: active = GI50 up to about 1.1 µM and inactive = higher.

Test systems include SF-539; MDA-MB-435; OVCAR-8; SK-MEL-2; RPMI-8226; RXF 393; BT-549; Malme-3M; NCI-H460; KM12; SF-268; HOP-62; SNB-19; SNB-75; SW-620; T47D; HT-29; EKVX; HL-60; SK-MEL-28.
Holding throughout (assay): NCI tumour cell line growth inhibition, 48 h

`C=C1c2nc3ccccc3n2C=C(c2ccc(C)cc2)N1c1ccccc1`: the GI50 with SF-539 is 2.44 µM (inactive); in the test on MDA-MB-435 it was 0.439 µM (active); in the test on OVCAR-8, 5.14 µM (inactive); with SK-MEL-2 it was 4.49 µM (inactive); in the test on RPMI-8226, 2.3 µM (inactive); in the test on RXF 393 it was 3.36 µM (inactive). For the same molecule, the GI50 in the test on BT-549 was 7.78 µM (inactive); with Malme-3M it was 2.62 µM (inactive); in the test on NCI-H460, 2.88 µM (inactive); in the test on KM12, 1.1 µM (active); in the test on SF-268 it was 12.9 µM (inactive); with HOP-62, 6.49 µM (inactive). The GI50 was 4.04 µM (inactive) in the test on SNB-19; 2.08 µM (inactive) in the test with SNB-75; 1.67 µM (inactive) in the test with SW-620; 3.24 µM (inactive) in the test with T47D; 1.61 µM (inactive) in the test on HT-29; 2.9 µM (inactive) in the test on EKVX. Besides, the GI50 with HL-60 is 1.85 µM (inactive); with SK-MEL-28, 5.58 µM (inactive).
On to `O=C(Nc1ccc(Cl)cc1)c1cc(S(=O)(=O)NC2=Nc3ccc(Cl)cc3C(c3ccccc3)N2)c(SSc2cc(Cl)c(C(=O)Nc3ccc(Cl)cc3)cc2S(=O)(=O)NC2=Nc3ccc(Cl)cc3C(c3ccccc3)N2)cc1Cl` (stereo not given), for which the GI50 was > 100 µM (inactive) in the test on SF-539; > 100 µM (inactive) in the test on MDA-MB-435; > 100 µM (inactive) with OVCAR-8; > 100 µM (inactive) in the test on SK-MEL-2; 97.1 µM (inactive) in the test with RPMI-8226; > 100 µM (inactive) in the test on RXF 393. The GI50 in the test with BT-549, in the test with Malme-3M, with NCI-H460, in the test on KM12, in the test with SF-268 and in the test on HOP-62 was > 100 µM (inactive) throughout. Moreover, the GI50 with SNB-19, in the test on SNB-75, in the test on SW-620, in the test on T47D, with HT-29 and in the test on EKVX was > 100 µM (inactive) in each case. Further, the GI50 was 3.37 µM (inactive) in the test with HL-60 and > 100 µM (inactive) in the test on SK-MEL-28.
As for `COc1cc(-c2cc(=O)c3cc4c(=O)cc(-c5cc(OC)c(OC)c(OC)c5)oc4cc3o2)cc(OC)c1OC`, the GI50 is 58.3 µM (inactive) in the test on SF-539; > 100 µM (inactive) with MDA-MB-435; 27 µM (inactive) in the test with OVCAR-8; 16.7 µM (inactive) in the test on SK-MEL-2; > 100 µM (inactive) in the test on RPMI-8226; 7.98 µM (inactive) in the test with RXF 393. Besides, the GI50 with BT-549 is 17.5 µM (inactive); in the test with Malme-3M, 43.2 µM (inactive); in the test with NCI-H460, > 100 µM (inactive); in the test with KM12 it was > 100 µM (inactive); in the test with SF-268, 23.5 µM (inactive); in the test with HOP-62, 12.6 µM (inactive). Besides, the GI50 is 16.4 µM (inactive) in the test with SNB-19; 13.5 µM (inactive) with SNB-75; > 100 µM (inactive) in the test with SW-620; > 54.8 µM (inactive) with T47D; > 100 µM (inactive) in the test with HT-29; > 100 µM (inactive) with EKVX. The GI50 in the test with HL-60 and in the test on SK-MEL-28 was > 100 µM (inactive) in each case.
As for `COc1c(O)c(O)cc2c1-c1ccc(OC)c(=O)cc1C(NC(C)=O)CC2` (stereo not given), the GI50 is 2.81 µM (inactive) in the test with SF-539; 1.6 µM (inactive) in the test with MDA-MB-435; 7.55 µM (inactive) with OVCAR-8; 3.15 µM (inactive) in the test with SK-MEL-2; 10.9 µM (inactive) in the test with RPMI-8226; 2.84 µM (inactive) in the test with RXF 393. Further, the GI50 in the test with BT-549 was 2.22 µM (inactive); in the test on Malme-3M it was 5.7 µM (inactive); in the test on NCI-H460, 6.07 µM (inactive); in the test on KM12 it was 3.43 µM (inactive); with SF-268, 5.52 µM (inactive); with HOP-62 it was 7.6 µM (inactive). Also, the GI50 in the test on SNB-19 was 5.51 µM (inactive); with SNB-75, 4.24 µM (inactive); with SW-620, 4.41 µM (inactive); in the test with T47D, > 100 µM (inactive); in the test with HT-29 it was 3.07 µM (inactive); in the test with EKVX it was 25.5 µM (inactive). For the same molecule, the GI50 was 4.85 µM (inactive) in the test with HL-60 and 8.07 µM (inactive) with SK-MEL-28.
`COC(=O)C1(C)CCc2c(ccc3ccccc23)C1=O` (stereo not given): the GI50 in the test with SF-539 is 86.7 µM (inactive); in the test on MDA-MB-435 it was 34.4 µM (inactive); with OVCAR-8, 40.1 µM (inactive); with SK-MEL-2, 26.8 µM (inactive); in the test with RPMI-8226 it was 23.2 µM (inactive); with RXF 393, 25 µM (inactive). In addition, the GI50 in the test on BT-549 is 27.1 µM (inactive); with Malme-3M, 27.8 µM (inactive); in the test on NCI-H460, 40.5 µM (inactive); with KM12 it was 25.8 µM (inactive); in the test with SF-268 it was 32.1 µM (inactive); in the test on HOP-62, 78.7 µM (inactive). In addition, the GI50 with SNB-19 is 45.2 µM (inactive); with SNB-75 it was 44.8 µM (inactive); with SW-620 it was 39 µM (inactive); in the test with T47D, 24.5 µM (inactive); with HT-29, 40.2 µM (inactive); with EKVX, 31.8 µM (inactive). Further, the GI50 in the test with HL-60 is 35.9 µM (inactive); in the test with SK-MEL-28, 64.7 µM (inactive).
Consider `CCOc1cc(NC(C)=O)ccc1C(=O)NN1C(=O)C(Cl)C1c1ccccc1` (stereo not given), for which the GI50 was 10.9 µM (inactive) in the test on SF-539; 11.5 µM (inactive) in the test with MDA-MB-435; 20.9 µM (inactive) with OVCAR-8; 14.3 µM (inactive) in the test on SK-MEL-2; 9.95 µM (inactive) with RPMI-8226; 13.6 µM (inactive) with RXF 393. The GI50 was 11.4 µM (inactive) in the test on BT-549; 11.2 µM (inactive) in the test on Malme-3M; 16 µM (inactive) with NCI-H460; 17.3 µM (inactive) in the test with KM12; 16.7 µM (inactive) in the test with SF-268; 20.5 µM (inactive) in the test with HOP-62. Besides, the GI50 in the test with SNB-19 was 15.1 µM (inactive); with SNB-75, 15.6 µM (inactive); in the test on SW-620, 12.4 µM (inactive); with T47D, 12.5 µM (inactive); in the test on HT-29, 16.6 µM (inactive); with EKVX, 14.9 µM (inactive). Moreover, the values for the GI50 with HL-60 and in the test on SK-MEL-28 were 14.1 µM (inactive) and 16.9 µM (inactive), respectively.
Take `O=C(CCSC1=NCCCN1)c1ccc(F)cc1`: the GI50 in the test with SF-539 is 15.7 µM (inactive); with MDA-MB-435, 18.5 µM (inactive); in the test with OVCAR-8, 31.9 µM (inactive); with SK-MEL-2, 18.2 µM (inactive); in the test on RPMI-8226 it was 2.15 µM (inactive); in the test on RXF 393, 17.2 µM (inactive). Moreover, the GI50 with BT-549 is 18.2 µM (inactive); with Malme-3M it was 7.26 µM (inactive); with NCI-H460, 22 µM (inactive); in the test with KM12 it was 19.7 µM (inactive); in the test with SF-268, 22.9 µM (inactive); with HOP-62, 27.8 µM (inactive). Further, the GI50 is 22.1 µM (inactive) in the test with SNB-19; 19 µM (inactive) with SNB-75; 2.86 µM (inactive) in the test on SW-620; 21.9 µM (inactive) in the test with T47D; 20.2 µM (inactive) with HT-29; 12.7 µM (inactive) in the test with EKVX. In addition, the GI50 with HL-60 is 10.7 µM (inactive); in the test with SK-MEL-28, 18.7 µM (inactive).
`COCC(=O)OC1CCn2c1nc1c2C(=O)C(C)=C(NC(C)=O)C1=N` (stereo not given): the GI50 in the test on SF-539 is 2.07 µM (inactive); in the test on MDA-MB-435, 1.66 µM (inactive); in the test with OVCAR-8, 2.56 µM (inactive); in the test with SK-MEL-2, 2.15 µM (inactive); in the test on RPMI-8226 it was 2.27 µM (inactive); in the test with RXF 393, 2.16 µM (inactive). For the same molecule, the GI50 is 0.993 µM (active) with BT-549; 1.38 µM (inactive) in the test with Malme-3M; 14 µM (inactive) in the test on NCI-H460; 14.2 µM (inactive) in the test with KM12; 5.19 µM (inactive) with SF-268; 15.6 µM (inactive) in the test on HOP-62. Also, the GI50 with SNB-19 is 17.9 µM (inactive); in the test with SNB-75, 15.3 µM (inactive); in the test on SW-620, 2.49 µM (inactive); with T47D it was 1.95 µM (inactive); in the test with HT-29, 4.21 µM (inactive); with EKVX, 12.3 µM (inactive). The GI50 was 2.9 µM (inactive) with HL-60 and 4.59 µM (inactive) in the test on SK-MEL-28.
Turning to `COc1cc(C2c3[nH]c4ccccc4c3C[C@H]3COC(=O)N23)cc(OC)c1OC` (stereo not given in full), the GI50 in the test with SF-539 is 0.035 µM (active); in the test on MDA-MB-435, 0.0213 µM (active); in the test on OVCAR-8 it was 0.178 µM (active); in the test on SK-MEL-2, 0.0655 µM (active); with RPMI-8226, 0.0676 µM (active); in the test on RXF 393 it was < 0.01 µM (active). For the same molecule, the GI50 with BT-549 is 0.163 µM (active); with Malme-3M it was 0.0453 µM (active); with NCI-H460 it was 0.055 µM (active); in the test on KM12 it was 0.0552 µM (active); in the test on SF-268, 0.132 µM (active); with HOP-62, 0.0467 µM (active). Moreover, the GI50 with SNB-19 is 0.0803 µM (active); with SNB-75, 0.0923 µM (active); in the test with SW-620, 0.051 µM (active); with T47D, > 10 µM (inactive); in the test on HT-29, 0.097 µM (active); in the test on EKVX it was < 0.01 µM (active). Also, the GI50 in the test with HL-60 was 0.0336 µM (active); in the test with SK-MEL-28, 0.0796 µM (active).
In the case of `OC1(c2ccc3ccccc3c2)c2ccc3ccccc3c2C2=NCCN21` (stereo not given), the GI50 in the test on SF-539 is 19.5 µM (inactive); in the test on MDA-MB-435 it was > 100 µM (inactive); in the test with OVCAR-8, 23.3 µM (inactive); in the test with SK-MEL-2, > 100 µM (inactive); in the test with RPMI-8226 it was > 100 µM (inactive); in the test with RXF 393 it was 29.4 µM (inactive). For the same molecule, the GI50 in the test on BT-549 is > 100 µM (inactive); in the test on Malme-3M it was > 100 µM (inactive); with NCI-H460, 23.6 µM (inactive); in the test on KM12, > 100 µM (inactive); in the test with SF-268, 54.3 µM (inactive); in the test on HOP-62 it was 18.5 µM (inactive). Further, the GI50 in the test on SNB-19 was 66.8 µM (inactive); in the test on SNB-75, 24.9 µM (inactive); with SW-620, 94.8 µM (inactive); in the test with T47D, > 100 µM (inactive); in the test with HT-29 it was > 100 µM (inactive); in the test on EKVX, > 100 µM (inactive). The GI50 in the test with HL-60 and in the test with SK-MEL-28 was > 100 µM (inactive) throughout.
